# Reference: patent US6906074B2, “2-phenylpiperazine derivatives” (Nippon Zoki Pharmaceutical Co., Ltd., priority 2002, dated 2005)
# Marks after values point to notes of the source that are not given here.
# Columns and labels:
# [1] = system: Substance P-induced increase of vascular permeability (tachykinin receptor); experiment: Substance P-induced increase of vascular permeability in guinea pig skin (Evans Blue dye); format: in vivo, guinea pigs; details: Substance P 1 pmole/site, 10 mg/kg oral
# Protocol: (§1) The compounds of the present invention and synthesized LY-303870 were suspended or dissolved in 0.5% sodium carboxymethylcellulose solution, and orally administered at the dose of 5 mL/kg. to male Hartley SPF guinea pigs of 6 week age.
# (§2) Guinea pigs, sheared of fur, were anesthetized with ether and 1% Evan Blue dye in physiological saline (1 mL/500 g b.w.) was injected into their fore-leg intravenously. Immediately after the dye injection, SP (1 pmol/site), NKA (100 pmol/site) and NKB (100 pmol/site) in physiological saline were injected dorsal intradermally (0.05 mL/site) whereby the reaction of increase of vascular permeability was induced. Half an hour after tachykinin challenge, the animals were sacrificed by decapitation and bloodletting, and the dorsal skin was removed and the amount of transuded blue dye thereof was measured. Namely, the blue dyed sites were punched out using a punch for leather (16 mm diameter), of which 2 pieces were allowed to stand at 37° C. overnight in a covered tube with addition of 1 mL of 2 mol/L KOH solution. After stirring well, 6 mL of a mixture of 2 mol/L H3PO4 solution and acetone (1:3) were added thereto and Evans Blue dye was extracted by vigorous shaking for 10 minutes. After the precipitate was filtered off, the absorbance of the filtrate was measured at 620 nm with a spectrophotometer and the amount of dye was determined from the calibration curve. Nonspecific reaction was estimated from the amount of transuded dye by the injection of physiological saline. The significant difference in the average values between the control group and the test compound-treated group was calculated by means of a Student's t-test or Dunnett's test (Statistical Library I, two-sided test, Yukms).
# (§3) The tested compounds were orally administered at a dose of 10 mg/kg at various points from 30 min to 8 hrs before the induction of tachykinin-induced increase of vascular permeability. An example of the results is shown in Table 2 (* and ** stand for the significant difference of p<0.05 and p<0.01 respectively compared to control).
# [2] = system: Neurokinin A-induced increase of vascular permeability (tachykinin receptor); experiment: Neurokinin A-induced increase of vascular permeability in guinea pig skin (Evans Blue dye); format: in vivo, guinea pigs; details: Neurokinin A 100 pmole/site, 10 mg/kg oral
# Protocol: as §1, §2, §3
# [3] = system: Neurokinin B-induced increase of vascular permeability (tachykinin receptor); experiment: Neurokinin B-induced increase of vascular permeability in guinea pig skin (Evans Blue dye); format: in vivo, guinea pigs; details: Neurokinin B 100 pmole/site, 10 mg/kg oral
# Protocol: as §1, §2, §3
# human NK1 receptors = human NK1 receptors (Homo sapiens, UniProt P25103); experiment: Binding assay for human NK1 receptors ((3H)-Sar9-SP, human NK1-CHO cells)
# [4] = 0.5 hr from administration to induction
# [5] = 1 hr from administration to induction
# [6] = 2 hr from administration to induction
# [7] = 3 hr from administration to induction
# [8] = 4 hr from administration to induction
# [9] = 8 hr from administration to induction
# human NK1 receptors, sequence (P25103 whole entry): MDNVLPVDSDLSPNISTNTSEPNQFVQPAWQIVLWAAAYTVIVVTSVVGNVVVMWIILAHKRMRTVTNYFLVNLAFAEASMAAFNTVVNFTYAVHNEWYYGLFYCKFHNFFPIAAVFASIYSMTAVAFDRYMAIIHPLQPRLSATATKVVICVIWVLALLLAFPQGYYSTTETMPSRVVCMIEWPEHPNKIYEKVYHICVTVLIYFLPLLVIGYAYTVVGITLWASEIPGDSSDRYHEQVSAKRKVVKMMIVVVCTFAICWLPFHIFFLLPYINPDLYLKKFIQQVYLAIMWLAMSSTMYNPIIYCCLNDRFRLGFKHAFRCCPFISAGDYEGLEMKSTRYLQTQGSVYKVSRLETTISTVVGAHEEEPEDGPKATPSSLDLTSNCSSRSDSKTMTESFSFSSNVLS
structure (smiles),measurement,setting,value
Cl.O=C1CN[C@@H](c2ccccc2)[C@@H](COCc2cc(C(F)(F)F)cc(C(F)(F)F)c2)N1,melting point,,219 to 221 °C
"O=C1CN(Cc2n[nH]c(=O)[nH]2)[C@H](c2ccccc2)[C@H](COCc2cc(C(F)(F)F)cc(C(F)(F)F)c2)N1 [Compound 27, (5R,6R)-6-(3,5-Bis(trifluoromethyl)benzyloxymethyl)-4-(5-oxo-4,5-dihydro-1H-(1,2,4)triazol-3-ylmethyl)-5-phenylpiperazin-2-one]",melting point,,138 to 140 °C
CN(C)Cc1[nH]nnc1CN1CC(=O)N[C@H](COCc2cc(C(F)(F)F)cc(C(F)(F)F)c2)[C@@H]1c1ccc(F)cc1.Cl.Cl,melting point,,213 to 216 °C
"COc1ccccc1CN(C[C@@H](Cc1c[nH]c2ccccc12)NC(=O)CN1CCC(N2CCCCC2)CC1)C(C)=O [LY-303870, reference compound]","amount of transuded blue dye, Mean ± S.E",[1]; [4],6.3 ± 2.1**
same,"amount of transuded blue dye, Mean ± S.E",[1]; [5],7.8 ± 2.5**
same,"amount of transuded blue dye, Mean ± S.E",[1]; [6],17.0 ± 3.4
same,"amount of transuded blue dye, Mean ± S.E",[1]; [7],12.2 ± 2.2**
same,"amount of transuded blue dye, Mean ± S.E",[1]; [8],14.4 ± 0.9**
same,"amount of transuded blue dye, Mean ± S.E",[2]; [4],5.3 ± 2.3**
same,"amount of transuded blue dye, Mean ± S.E",[2]; [5],5.8 ± 1.9**
same,"amount of transuded blue dye, Mean ± S.E",[2]; [6],14.5 ± 5.0
same,"amount of transuded blue dye, Mean ± S.E",[2]; [7],11.1 ± 4.3
same,"amount of transuded blue dye, Mean ± S.E",[2]; [8],10.8 ± 3.4
same,"amount of transuded blue dye, Mean ± S.E",[3]; [4],2.0 ± 1.2**
same,"amount of transuded blue dye, Mean ± S.E",[3]; [5],5.0 ± 2.2**
same,"amount of transuded blue dye, Mean ± S.E",[3]; [6],12.0 ± 3.2*
same,"amount of transuded blue dye, Mean ± S.E",[3]; [7],7.7 ± 1.8**
same,"amount of transuded blue dye, Mean ± S.E",[3]; [8],13.6 ± 1.1**
"O=C1CN(Cc2n[nH]c(=O)[nH]2)[C@@H](c2ccc(F)cc2)[C@@H](COCc2cc(C(F)(F)F)cc(C(F)(F)F)c2)N1 [Compound 40, (5S,6S)-6-(3,5-Bis(trifluoromethyl)benzyloxymethyl)-5-(4-fluorophenyl)-4-(5-oxo-4,5-dihydro-1H-(1,2,4)triazol-3-ylmethyl)piperazin-2-one]",melting point,,138 to 140 °C
"CN1C(=O)CN(Cc2n[nH]c(=O)[nH]2)[C@@H](c2ccccc2)[C@H]1COCc1cc(C(F)(F)F)cc(C(F)(F)F)c1 [Compound 26, (5S,6S)-6-(3,5-Bis(trifluoromethyl)benzyloxymethyl)-1-methyl-4-(5-oxo-4,5-dihydro-1H-(1,2,4)triazol-3-ylmethyl)-5-phenylpiperazin-2-one]","amount of transuded blue dye, Mean ± S.E",[1]; [4],6.2 ± 1.5**
same,"amount of transuded blue dye, Mean ± S.E",[1]; [5],1.4 ± 0.6**
same,"amount of transuded blue dye, Mean ± S.E",[1]; [6],4.3 ± 0.9**
same,"amount of transuded blue dye, Mean ± S.E",[1]; [8],4.9 ± 1.3**
same,"amount of transuded blue dye, Mean ± S.E",[1]; [9],11.9 ± 2.4**
same,"amount of transuded blue dye, Mean ± S.E",[2]; [4],3.6 ± 0.7**
same,"amount of transuded blue dye, Mean ± S.E",[2]; [5],1.0 ± 0.5**
same,"amount of transuded blue dye, Mean ± S.E",[2]; [6],2.6 ± 1.4**
same,"amount of transuded blue dye, Mean ± S.E",[2]; [8],3.6 ± 2.6**
same,"amount of transuded blue dye, Mean ± S.E",[2]; [9],10.1 ± 3.3
same,"amount of transuded blue dye, Mean ± S.E",[3]; [4],1.4 ± 0.9**
same,"amount of transuded blue dye, Mean ± S.E",[3]; [5],0.1 ± 0.1**
same,"amount of transuded blue dye, Mean ± S.E",[3]; [6],0.5 ± 0.4**
same,"amount of transuded blue dye, Mean ± S.E",[3]; [8],1.0 ± 0.4**
same,"amount of transuded blue dye, Mean ± S.E",[3]; [9],9.4 ± 1.6**
same,IC50,human NK1 receptors,0.04 nM
"O=C1CN(Cc2n[nH]c(=O)[nH]2)[C@@H](c2ccccc2)[C@@H](COCc2cc(C(F)(F)F)cc(C(F)(F)F)c2)N1 [Compound 12, (5S,6S)-6-(3,5-Bis(trifluoromethyl)benzyloxymethyl)-4-(5-oxo-4,5-dihydro-1H-(1,2,4)triazol-3-ylmethyl)-5-phenylpiperazin-2-one]",IC50,human NK1 receptors,1.5 nM
CN(C)Cc1[nH]nnc1CN1CC(=O)N(C)[C@H](COCc2cc(C(F)(F)F)cc(C(F)(F)F)c2)[C@@H]1c1ccc(F)cc1.Cl.Cl,melting point,,142 to 145 °C
"O=C1CN(Cc2n[nH]c(=O)[nH]2)[C@@H](c2ccc(F)cc2)[C@@H](COCc2cc(C(F)(F)F)cc(C(F)(F)F)c2)N1 [Compound 32, (5S,6S)-6-(3,5-Bis(trifluoromethyl)benzyloxymethyl)-5-(4-fluorophenyl)-4-(5-oxo-4,5-dihydro-1H-(1,2,4)triazol-3-ylmethyl)piperazin-2-one]",melting point,,129 to 132 °C
same,IC50,human NK1 receptors,0.24 nM
"CN1C(=O)CN(Cc2n[nH]c(=O)[nH]2)[C@@H](c2ccc(F)cc2)[C@H]1COCc1cc(C(F)(F)F)cc(C(F)(F)F)c1 [Compound 38, (5S,6S)-6-(3,5-Bis(trifluoromethyl)benzyloxymethyl)-5-(4-fluorophenyl)-1-methyl-4-(5-oxo-4,5-dihydro-1H-(1,2,4)triazol-3-ylmethyl)piperazin-2-one]",melting point,,212 to 213 °C
